Measurements as given in ChEMBL document CHEMBL1129810, “Eicosanoid biosynthesis: differential inhibition of cytochrome P450 epoxygenase and -hydroxylase” (Bioorg Med Chem Lett, 1997).

Target: T1, Cytochrome P450 2C23 (Rattus norvegicus, UniProt P24470)
T1 sequence (P24470 whole entry): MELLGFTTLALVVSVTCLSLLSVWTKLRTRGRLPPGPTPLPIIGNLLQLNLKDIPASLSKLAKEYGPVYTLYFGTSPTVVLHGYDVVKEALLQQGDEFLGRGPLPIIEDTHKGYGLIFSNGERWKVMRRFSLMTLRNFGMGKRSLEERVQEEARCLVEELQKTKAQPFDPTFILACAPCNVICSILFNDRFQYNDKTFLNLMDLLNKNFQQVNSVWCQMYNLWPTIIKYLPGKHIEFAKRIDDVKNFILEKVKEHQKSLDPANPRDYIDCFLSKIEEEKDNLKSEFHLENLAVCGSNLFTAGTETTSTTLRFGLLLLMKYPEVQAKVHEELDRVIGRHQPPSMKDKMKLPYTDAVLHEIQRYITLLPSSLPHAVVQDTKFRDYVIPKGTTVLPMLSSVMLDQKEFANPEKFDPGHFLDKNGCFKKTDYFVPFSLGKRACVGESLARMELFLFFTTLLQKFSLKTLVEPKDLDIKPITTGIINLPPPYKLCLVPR
Experiment: Inhibition of Cytochrome P450 epoxygenase in rat kidney microsomes
Format: ADME

IC50 [µM] | Structure (SMILES)
6 | COC(=O)CCCCCCCC=C(Br)Br
5 | C#CC#CC(O)CCc1ccccc1-c1ccccc1CO (stereo not drawn)
6 | CS(=O)(=O)NC(=O)CCCCCCCC=C(Br)Br
